# According to patent US20230312610A1, “Anti-Microbial Compositions” (5D HEALTH PROTECTION GROUP LTD, priority 2020, published 2023):
# Legend:
# [1] = tested on: P. aeruginosa (ATCC 15442); assay: MIC measurement (adapted CLSI M07-A11 broth dilution); assay type: cell-based; details: for MIC: P. aeruginosa (ATCC 15442), MHB, overnight 37° C.
# Protocol: (§1) MIC measurements were performed using an adapted method described in the Clinical and Laboratory Standards Institute (CLSI) guidelines M07-A11. Compounds were serial diluted two-fold in Mueller Hinton Broth (MHB) in 96 well plates. A positive growth control and a negative growth control were also included in the well plates.
# (§2) A colony suspension of S. aureus (ATCC 29213), P. aeruginosa (ATCC 15442) and C. albican was prepared by taking several colonies from a fresh agar plate and suspending them in MHB. The suspension was adjusted to 0.5 McFarland (~1 × 10^8 CFU/mL) and diluted 1:100. The inoculum was then added to wells at a final concentration of […]. Plates were incubated overnight at 37° C. The following day, MICs were determined as the lowest concentration that no growth could be visually observed.
# (§3) An 80 mg/ml solution of T-EDTA was prepared by dissolving T-EDTA (99% pure, Acros Organics) in sterile distilled water. The pH of this solution was measured at 10.5, using a pH electrode. A 16 mg/ml solution of DTPA was prepared by dissolving DTPA (98%+ Acros Organics) in distilled water, and adjusting pH to 10.5 using the addition of sodium hydroxide.
# [2] = tested on: S. aureus (ATCC 29213); assay: as above; assay type: cell-based; details: for MIC: S. aureus (ATCC 29213), MHB, overnight 37° C.
# Protocol: as §1, §2, §3
# [3] = tested on: C. albican (ATCC 10231); assay: as above; assay type: cell-based; details: MHB, overnight 37° C.
# Protocol: as §1, §2
# [4] = Concentration studies: loading of complex in aqueous solution; assay type: physicochemical
# Protocol: 3.29 g silver nitrate was dissolved in 4.71 g demineralised water to produce a silver nitrate solution. 2.58 g copper sulphate pentahydrate was dissolved in 16.09 g demineralised water to produce a copper sulphate solution. Silver nitrate solution was added to the DPTA solution with vigorous stirring. […] Copper sulphate solution was added to the white dispersion.
# 2.39 g silver nitrate was dissolved in 4.61 g demineralised water to produce a silver nitrate solution. 2.08 g zinc sulphate monohydrate was dissolved in 15.92 g demineralised water to produce a zinc sulphate solution. […] Zinc sulphate solution was added to the white dispersion.
# 0.24 g silver nitrate (AgNO3) was dissolved in 3.26 g demineralised water to produce a silver nitrate solution. 0.66 g aluminium sulphate hexadecahydrate (Al2H32O28S3) was dissolved in 8.34 g demineralised water to produce an aluminium sulphate solution. […] Aluminium sulphate solution was added to the white dispersion.
# Silver nitrate solution was formed by dissolving 0.24 g silver nitrate (AgNO3) in 3.26 g demineralised water.
# [5] = clear aqueous solution as prepared
Compound,MIC [1],MIC [2],MIC [3],"theoretical concentration of the complex in solution [4, 5]","theoretical total solids concentration [4, 5]","increase in potency (MIC) compared to uncomplexed T-EDTA ([1]; P. aeruginosa, versus uncomplexed T-EDTA)","increase in potency (MIC) compared to uncomplexed T-EDTA ([2]; S. aureus, versus uncomplexed T-EDTA)","increase in potency (MIC) versus prior art compound Ag2Cu(EDTA) ([1]; P. aeruginosa, versus Ag2Cu(EDTA))","increase in potency (MIC) versus prior art compound Ag2Cu(EDTA) ([2]; S. aureus, versus Ag2Cu(EDTA))",total soluble solids content of the solution ([4]; clear aqueous solution of the complex as prepared)
"O=C([O-])CN(CCN(CC(=O)[O-])CC(=O)[O-])CCN(CC(=O)[O-])CC(=O)[O-].[Ag+].[Ag+].[Bi+3] [Ag2Bi(DTPA), Ag2Bi(DPTA)]",94 µg/mL,190 µg/mL,11 µg/mL,0.02 mol/kg,9.7%,,,,,
"O=C(O)CN(CCN(CC(=O)O)CC(=O)O)CCN(CC(=O)O)CC(=O)O [DTPA, diethylenetriaminepentaacetic acid, reference compound]",2000 µg/mL,1000 µg/mL,,,,2.5 fold,1.25 fold,,,
O=C([O-])CN(CCN(CC(=O)[O-])CC(=O)[O-])CCN(CC(=O)[O-])CC(=O)[O-].[Ag+].[Ag+].[Al+3] [Ag2Al(DTPA)],450 µg/mL,370 µg/mL,530 µg/mL,2.9%,,,,,,
"O=C([O-])CN(CCN(CC(=O)[O-])CC(=O)[O-])CC(=O)[O-].[Ag+].[Ag+].[Cu+2] [Ag2Cu(EDTA), reference compound]",6 µg/mL,98 µg/mL,,,,,,,,
Ag3Cu(DTPA) [Ag3Cu(DPTA)],1.6 µg/mL,6 µg/mL,,,,,,approximately 4 fold,approximately 16 fold,22.5 % w/w
